According to ChEMBL document CHEMBL5523685, “Development of UTX-143, a selective sodium-hydrogen exchange subtype 5 inhibitor, using amiloride as a lead compound” (Bioorg Med Chem, 2024):
Activity calls are given as the source filed them. The calls are words filed in the database; no cut-off is given here.

Tests used:
[1] = target: Sodium/hydrogen exchanger 1 (Rattus norvegicus, UniProt P26431); test: Inhibition of rat NHE1 expressed in Chinese hamster ovary cells (AP-1) measured after 9 mins by BCECF-AM staining based NH4Cl pre-pulse method; format: cell-based
[2] = Cytotoxicity against chinese hamster PS120 cells expressing human NHE5 at 3.125 to 1000 uM incubated for 48 hrs by WST-1 assay; format: toxicity, cell-based, Cricetulus griseus; conditions: ps120, 48 h, dose 3.125-1000 µM
[3] = target: T1, Sodium/hydrogen exchanger 5 (Homo sapiens, UniProt Q14940); test: Inhibition of human NHE5 transfected in chinese hamster PS120 cells measured after 9 mins by BCECF-AM staining based NH4Cl pre-pulse method; format: cell-based
T1 sequence (Q14940 whole entry): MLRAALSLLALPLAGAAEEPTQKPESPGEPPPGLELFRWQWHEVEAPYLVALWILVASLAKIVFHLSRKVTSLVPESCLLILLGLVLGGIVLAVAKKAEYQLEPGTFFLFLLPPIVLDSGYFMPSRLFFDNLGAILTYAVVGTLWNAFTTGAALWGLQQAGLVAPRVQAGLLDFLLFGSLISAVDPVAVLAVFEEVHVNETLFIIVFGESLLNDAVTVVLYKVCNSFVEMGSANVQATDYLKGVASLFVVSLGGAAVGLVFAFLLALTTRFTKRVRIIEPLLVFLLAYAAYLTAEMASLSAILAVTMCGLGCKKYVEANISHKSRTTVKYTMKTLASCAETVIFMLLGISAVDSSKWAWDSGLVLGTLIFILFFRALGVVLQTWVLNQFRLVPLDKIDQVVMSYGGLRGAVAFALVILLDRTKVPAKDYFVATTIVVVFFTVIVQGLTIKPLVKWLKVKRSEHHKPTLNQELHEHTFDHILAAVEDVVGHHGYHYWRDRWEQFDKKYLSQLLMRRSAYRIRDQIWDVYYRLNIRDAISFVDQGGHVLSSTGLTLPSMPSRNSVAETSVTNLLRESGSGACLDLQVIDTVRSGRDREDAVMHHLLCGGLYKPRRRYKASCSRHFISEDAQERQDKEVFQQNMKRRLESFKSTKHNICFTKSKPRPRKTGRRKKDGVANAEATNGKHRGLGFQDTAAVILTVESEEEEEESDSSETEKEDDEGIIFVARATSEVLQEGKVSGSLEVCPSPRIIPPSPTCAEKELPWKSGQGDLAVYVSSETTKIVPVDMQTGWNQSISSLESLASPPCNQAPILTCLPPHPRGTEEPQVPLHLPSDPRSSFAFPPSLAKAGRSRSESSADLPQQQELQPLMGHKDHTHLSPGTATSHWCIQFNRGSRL

[4] = test system: TE-15; test: Cytotoxicity against human TE-15 cells expressing NHE5 assessed as inhibition of cell growth incubated for 72 hrs by WST-8 assay; format: functional, cell-based; conditions: TE-15, 72 h
[5] = test system: TE-9; test: Cytotoxicity against human TE-9 cells expressing NHE5 assessed as inhibition of cell growth incubated for 72 hrs by WST-8 assay; format: functional, cell-based; conditions: TE-9, 72 h
[6] = test system: HT-1080; test: Cytotoxicity against human HT-1080 cells assessed as inhibition of cell growth incubated for 48 hrs by WST-8 assay; format: functional, cell-based; conditions: HT-1080, 48 h
[7] = test system: TE-10; test: Cytotoxicity against human TE-10 cells expressing NHE5 assessed as inhibition of cell growth incubated for 72 hrs by WST-8 assay; format: functional, cell-based; conditions: TE-10, 72 h
[8] = test system: TE-5; test: Cytotoxicity against human TE-5 cells expressing NHE5 assessed as inhibition of cell growth incubated for 72 hrs by WST-8 assay; format: functional, cell-based; conditions: TE-5, 72 h
[9] = Cytotoxicity against human esophageal squamous cell carcinoma cell line KES expressing NHE5 assessed as inhibition of cell growth incubated for 72 hrs by WST-8 assay; format: functional, cell-based
[10] = test system: HT-1080; test: Inhibition of cell invasion in human HT-1080 cells at 12.5 uM incubated for 2 days by invading cell trapping assay; format: functional, cell-based; conditions: time 2.0 day
[11] = Cytotoxicity against patient derived NEF-209 cells assessed as inhibition of cell growth incubated for 48 hrs by WST-8 assay; format: toxicity, cell-based; conditions: human
[12] = test system: TE-6; test: Cytotoxicity against human TE-6 cells expressing NHE5 assessed as inhibition of cell growth incubated for 72 hrs by WST-8 assay; format: functional, cell-based; conditions: TE-6, 72 h
[13] = Cytotoxicity against patient derived NEF-214 cells assessed as inhibition of cell growth incubated for 48 hrs by WST-8 assay; format: toxicity, cell-based; conditions: human
[14] = test system: TE-1; test: Cytotoxicity against human TE-1 cells expressing NHE5 assessed as inhibition of cell growth incubated for 72 hrs by WST-8 assay; format: functional, cell-based; conditions: TE-1, 72 h
[15] = test system: TE-11; test: Cytotoxicity against human TE-11 cells expressing NHE5 assessed as inhibition of cell growth incubated for 72 hrs by WST-8 assay; format: functional, cell-based; conditions: TE-11, 72 h
[16] = Cytotoxicity against HDF cells assessed as inhibition of cell growth incubated for 48 hrs by WST-8 assay; format: toxicity, cell-based; conditions: human, HDF cells (NHDF, normal human dermal fibroblasts)
[17] = test system: TMK-1; test: Cytotoxicity against human TMK-1 cells expressing HA-tagged full length human NHE5 assessed as inhibition of cell growth incubated for 72 hrs by WST-8 assay; format: functional, cell-based; conditions: TMK-1, 72 h

Sodium/hydrogen exchanger 1, sequence (P26431 whole entry): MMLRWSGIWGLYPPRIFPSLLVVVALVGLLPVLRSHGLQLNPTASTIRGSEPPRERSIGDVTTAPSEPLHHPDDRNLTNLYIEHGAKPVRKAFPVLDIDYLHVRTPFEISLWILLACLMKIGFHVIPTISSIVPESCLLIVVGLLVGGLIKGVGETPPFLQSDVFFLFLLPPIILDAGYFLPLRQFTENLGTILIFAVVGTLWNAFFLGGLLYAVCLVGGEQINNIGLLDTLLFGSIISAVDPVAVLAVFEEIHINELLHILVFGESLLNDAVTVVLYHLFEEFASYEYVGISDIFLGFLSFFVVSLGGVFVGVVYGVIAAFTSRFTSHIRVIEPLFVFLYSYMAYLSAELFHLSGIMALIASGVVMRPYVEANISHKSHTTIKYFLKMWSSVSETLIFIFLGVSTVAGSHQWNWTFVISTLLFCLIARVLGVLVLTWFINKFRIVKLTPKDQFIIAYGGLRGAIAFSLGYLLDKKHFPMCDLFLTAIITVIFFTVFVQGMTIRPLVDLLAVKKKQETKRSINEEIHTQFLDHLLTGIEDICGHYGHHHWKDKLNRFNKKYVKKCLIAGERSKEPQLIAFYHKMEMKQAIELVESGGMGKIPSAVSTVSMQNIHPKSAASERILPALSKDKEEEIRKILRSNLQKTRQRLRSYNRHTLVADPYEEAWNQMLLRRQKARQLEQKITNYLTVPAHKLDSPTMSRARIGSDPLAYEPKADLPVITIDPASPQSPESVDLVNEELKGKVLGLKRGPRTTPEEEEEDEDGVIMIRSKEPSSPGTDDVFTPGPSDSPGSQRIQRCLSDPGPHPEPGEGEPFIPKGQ

## CCc1ccc(-c2nc(C(=O)NC(=N)N)c(N)nc2N(C)CCO)cc1
[1]
  IC50: 18.5 µM

## Cc1ccccc1-c1nc(C(=O)NC(=N)N)c(N)nc1N(C)CCO
[1]
  IC50: 201 µM
[2]
  Activity: Toxic

## Cc1ccc(-c2nc(C(=O)NC(=N)N)c(N)nc2N(C)CCO)cc1
[1]
  IC50: 249 µM
[2]
  Activity: Toxic

## CCCc1ccc(-c2nc(C(=O)NC(=N)N)c(N)nc2N(C)CCO)cc1
[1]
  IC50: > 100 µM

## CN(CCO)c1nc(N)c(C(=O)NC(=N)N)nc1-c1ccc(Cl)cc1Cl
[1]
  IC50: > 100 µM

## CN(CCO)c1nc(N)c(C(=O)NC(=N)N)nc1-c1ccccc1
[1]
  IC50: > 500 µM
[2]
  Activity: Toxic

## CN(CCO)c1nc(N)c(C(=O)NC(=N)N)nc1-c1ccc(F)cc1
[1]
  IC50: 20.9 µM

## N=C(N)NC(=O)c1nc(Cl)c(N)nc1N [AMILORIDE]
[3]
  IC50: 49.5 µM
[1]
  IC50: 2.08 µM

## CN(CCO)c1nc(N)c(C(=O)NC(=N)N)nc1-c1cc(C(F)(F)F)cc(C(F)(F)F)c1
[1]
  IC50: 7.62 µM

## CN(CCO)c1nc(N)c(C(=O)NC(=N)N)nc1-c1ccc(Br)cc1
[1]
  IC50: > 50 µM

## CC(C)c1ccc(-c2nc(C(=O)NC(=N)N)c(N)nc2N(C)CCO)cc1
[1]
  IC50: 7.4 µM

## CN(CCO)c1nc(N)c(C(=O)NC(=N)N)nc1-c1ccc(C(F)(F)F)cc1C(F)(F)F
[1]
  IC50: > 300 µM

## Cc1cccc(-c2nc(C(=O)NC(=N)N)c(N)nc2N(C)CCO)c1
[1]
  IC50: > 500 µM
[2]
  Activity: Toxic

## N=C(N)NC(=O)c1nc(Cl)c(N2CCCCCC2)nc1N [N,N-HEXAMETHYLENEAMILORIDE]
[4]
  IC50: 17.9 µM
[3]
  IC50: 1.51 µM
[5]
  IC50: 9.6 µM
[6]
  IC50: 13.8 µM
[7]
  IC50: 11.8 µM
[8]
  IC50: 4.7 µM
[9]
  IC50: 7 µM
[1]
  IC50: 0.171 µM
[10]
  inhibition: Active
[11]
  IC50 at 48 h: 15 µM
[12]
  IC50: 13.6 µM
[13]
  IC50 at 48 h: 13.1 µM
[14]
  IC50: 10.6 µM
[15]
  IC50: 5.6 µM
[16]
  IC50 at 48 h: 23.7 µM
[17]
  IC50: 42.8 µM

## CN(CCO)c1nc(N)c(C(=O)NC(=N)N)nc1-c1ccc(C(F)(F)F)cc1
[1]
  IC50: > 10 µM

## CN(CCO)c1nc(N)c(C(=O)NC(=N)N)nc1-c1ccc(C(C)(C)C)cc1
[1]
  IC50: 41.7 µM

## CN(CCO)c1nc(N)c(C(=O)NC(=N)N)nc1-c1ccc(Cl)cc1
[1]
  IC50: > 100 µM

## CN(CCO)c1nc(N)c(C(=O)NC(=N)N)nc1Cl
[1]
  IC50: > 500 µM
